Test results published in patent US5541187A, “6-heterocycyclyl pyrazolo[3,4-d]pyrimidin-4-ones and compositions and method of use thereof” (Sterling Winthrop Inc., priority 1993, dated 1996).
Values joined by “and” are separate entries in the source; they are usually repeats but may differ in a detail not shown here. Equal entries are not always repeated.

Legend:
cGMP-PDE I = cGMP-PDE I inhibitory activity (cyclic nucleotide hydrolysis, isolated PDE isozyme); assay type: biochemical, various animal species and man; details: for IC50: values marked * are from two separate experimental runs
Protocol: Multiple isozymic forms of cyclic nucleotide phosphodiesterase (PDE) have been identified in mammalian cells. […] Elevation of intracellular cGMP in vascular smooth muscle triggers a cascade of events that leads to a reduction in muscle tone while elevations in renal tubule cell cGMP stimulates natriuresis and diuresis. Vascular smooth muscle and renal cells contain a phosphodiesterase isozyme that has a low Km (1 μM) for the hydrolysis of cGMP. This isozyme has been referred to as the cGMP-PDE or cGMP-PDE I since it elutes from an anion-exchange sepharose resin in the first peak of PDE activity at a sodium acetate concentration between 150-200 mM. Thus inhibition of the cGMP-PDE isozyme is a viable subcellular mechanism by which increases in cGMP can produce a reduction in total peripheral resistance and a stimulation of natriuresis and diuresis. The development of cGMP-PDE inhibitors represents an approach for the discovery of agents useful for treating heart failure and hypertension. For example, compounds having high inhibitory potency for the cGMP-PDE are expected to lower blood pressure and induce natriuresis and diuresis.
The cGMP-PDE and other PDE isozymes were isolated from cardiovascular tissues (heart and aorta) of various animal species and man by anion-exchange and affinity chromatography as described by Silver et al., Sec. Messeng. Phos. 13:13-25, 1991; PDE activity, in the presence and absence of test compounds was determined essentially as described by Thompson et al., Adv. Cyclic Nucleotide Res. 10:69-92. To determine the potency and selectivity of compounds as PDE inhibitors, compounds are screened for their effect on cyclic nucleotide hydrolysis at 10 μM. If ≥50% inhibition of PDE activity is observed, an IC50 value (concentration of compound causing 50% reduction in PDE activity) and corresponding 95% confidence intervals are generated. The IC50 values are calculated from concentration-response curves as described by Tallarida and Murray, Manual of Pharmacologic Calculations with Computer Programs, Procedure 8, Graded Dose-response, pp. 14-19, Springer-Verlag, N.Y., 1981.

[1] = tested on: Spontaneously hypertensive rats (SHR); test: Antihypertensive activity in conscious spontaneously hypertensive rats (SHR), iv; assay type: in vivo; details: Rattus norvegicus, 5 min; for change in vivo at 3 mg/kg / change in vivo at 10 mg/kg / change in vivo at 1 mg/kg: 5 minutes after dose, cumulative dosing, read-out: % change in mean arterial pressure; for ED25: read-out: ED25 (mean arterial pressure)
Protocol: After a 2 day recovery from surgery, three baseline blood pressure measurements were made at 5 min intervals in conscious SHR. Compounds to be tested or vehicle were then administered intravenously in a dose-dependent manner (0.3-10 mg base/kg) while arterial pressure was recorded continuously on a polygraph. The mean arterial pressure response was measured 5 minutes after the administration of each dose of the test compound and the next dose given in a cumulative dose fashion. The response to each dose of the test compound was calculated as the difference from the mean of the three baseline measurements.

[2] = tested on: Spontaneously hypertensive rats; test: Procedure 2: in vivo reversal of nitroglycerin tolerance, mean arterial pressure; set-up: species or system rat (spontaneously hypertensive rats); details: for change in MAP in response to nitroglycerin injection: nitroglycerin 10 μg/kg i.v.
Protocol: Spontaneously hypertensive rats (16-19 weeks of age) were made nitroglycerin tolerant by injecting […] nitroglycerin s.c., 3-times/day for 3 days. While conscious and freely moving, the decrease in mean arterial pressure (MAP) in response to a challenge dose of nitroglycerin (10 μg/kg, i.v. bolus) was utilized to confirm tolerance.

[3] = tested on: aortic rings (aortic smooth muscle strips); test: Procedure 1: in vitro reversal of nitroglycerin tolerance, relaxation of aortic rings; assay type: cell-based, Male Sprague-Dawley rats; details: Rattus norvegicus, n=8, mean ±S.E.M.
Protocol: Male Sprague-Dawley rats (250-350 g body weight) were deeply anesthetized with pentobarbital (50 mg/kg) and then euthanized by exsanguination. The thoracic and abdominal cavities were immediately opened and the aorta was removed. In order to remove the influence of endogenous endothelial relaxing factor (EDRF), the entire length of the aorta was functionally denuded of the endothelial layer by gently scraping the luminal surface with a solid polyethylene catheter. The effectiveness of this procedure was tested in each preparation at the end of the experiment by measuring the vasorelaxant response to 1 μM carbachol, a stimulator of EDRF release. […] Maximal change in contractile tension over a series of nine consecutive 10 minute intervals was recorded and expressed as percent relaxation relative to post pre-treatment, phenylephrine-induced tension. Mean EC50 values were calculated from percent relaxation of individual tissues using a statistical program according to Tallarida and Murray, (Manual of Pharmacologic Calculations with Computer Programs, Springer-Verlag, N.Y. 1987) and are expressed as mean ±S.E.M.

Compound	IC50 (cGMP-PDE I)	Percent Inhibition cGMP-PDE I (cGMP-PDE I; 0.01 μM) [%]	Percent Inhibition cGMP-PDE I (cGMP-PDE I; 0.1 μM) [%]	change in vivo at 3 mg/kg [1] [%]	change in vivo at 10 mg/kg [1] [%]	ED25 [1] [mg/kg]	further results
Cc1nn(C2CCCC2)c2nc(-c3ccncc3)[nH]c(=O)c12 [Example 83]	370 nM	–	–	–	–	1	change in MAP at threshold dose of the compound ([2]; 1 mg/kg, i.v., threshold dose): approximately 10 mmHg; change in MAP in response to nitroglycerin injection after pretreatment with the compound ([2]; nitroglycerin tolerant rats (n=12), compound 1 mg/kg i.v., then nitroglycerin 10 μg/kg): -35 mmHg
Cc1[nH]n(C2CCCC2)c2nc(-c3ccnc4ccccc34)nc(=O)c1-2 [Example 13b, 1-Cyclopentyl-3-methyl-6-(4-quinolinyl)-pyrazolo [3,4-d]-pyrimidin-4-one]	97 nM	–	–	-14	–	–	change in vivo at 1 mg/kg [1]: -17%
Cc1[nH]n(C2CCCC2)c2nc(-c3ccc4ncccc4c3)nc(=O)c1-2 [Example 14c, 1-Cyclopentyl-3-methyl-6-(6-quinolinyl)-pyrazolo [3,4-d]-pyrimidin-4-one]	780 nM	–	–	–	–	7.8	–
CCc1[nH]n(C2CCCC2)c2nc(-c3ccncc3OC(C)CC)nc(=O)c1-2 (centres unmarked) [Example 132b, 1-Cyclopentyl-3-ethyl-6-(3-sec-butoxy-4-pyridyl)pyrazolo[3,4-d]pyrimidin-4-one]	–	90	–	-8	-12	–	change in vivo at 1 mg/kg [1]: -9%
O=[N+]([O-])OCC(CO[N+](=O)[O-])O[N+](=O)[O-] [nitroglycerin, reference compound]	–	–	–	–	–	–	EC50 ([3]; 1 h, tolerant strips, pre-exposed to 550 μM nitroglycerin for 60 minutes, p <0.01): 1550 ± 637 nM; EC50 ([3]; vehicle treated, control strips): 77 ± 16 nM; change in MAP in response to nitroglycerin injection ([2]; non-tolerant rats (n=6)): -19 mmHg; change in MAP in response to nitroglycerin injection ([2]; tolerant rats (n=11)): -11 mmHg
CCc1nn(C2CCCC2)c2nc(-c3ccncc3)[nH]c(=O)c12 [Example 75]	450 nM and 370 nM	–	–	–	–	1.7	–
COc1ccc(Cc2[nH]n(C(C)(C)C)c3nc(-c4ccncc4)nc(=O)c2-3)cc1OC [Example 4e, 1-tert-Butyl-3-(3,4-dimethoxybenzyl)-6-(4-pyridyl) pyrazolo[3,4-d]pyrimidin-4-one]	6 nM	69	–	–	-2	–	–

More lines, main results first:

IC50 (cGMP-PDE I)	Compound	Percent Inhibition cGMP-PDE I (cGMP-PDE I; 0.01 μM) [%]	Percent Inhibition cGMP-PDE I (cGMP-PDE I; 0.1 μM) [%]	change in vivo at 3 mg/kg [1] [%]	change in vivo at 10 mg/kg [1] [%]	ED25 [1] [mg/kg]	further results
150 nM	CCc1nn(C2CCCC2)c2nc(-c3ccnc(OCCN4CCOCC4)c3)[nH]c(=O)c12 [Example 124c, hydrate]	19	50	-14	-24	10.1	Percent Inhibition cGMP-PDE I (cGMP-PDE I; 1 μM): 86%
380 nM	Cc1nn(C(C)(C)C)c2nc(-c3ccncc3)[nH]c(=O)c12 [Example 93]	–	–	–	–	6.5	–
1.6 nM	CCOc1cnccc1-c1nc2n(C3CCCC3)[nH]c(CC)c-2c(=O)n1 [Example 119d, 1-Cyclopentyl-3-ethyl-6-(3-ethoxy-4-pyridyl)pyrazolo[3,4-d]pyrimidin-4-one]	–	90	-24	-36	4.8	–
120 nM	CC(C)(C)n1[nH]c(Cc2ccncc2)c2c(=O)nc(-c3ccncc3)nc1-2 [Example 123d, 1-tert-butyl-3-(4-pyridylmethyl)-6-(4-pyridyl)-pyrazolo[3,4-d]pyrimidin-4-one]	–	55	–	-7	–	Percent Inhibition cGMP-PDE I (cGMP-PDE I; 1 μM): 90%
1.8 nM and 2.5 nM	CCOc1cnccc1-c1nc2n(C3CCCC3)[nH]c(C(F)(F)F)c-2c(=O)n1 [Example 127c, 1-Cyclopentyl-3-trifluoromethyl-6-(3-ethoxy-4-pyridyl)pyrazolo[3,4-d]pyrimidin-4-one]	79	93	–	-14	–	–
